In ChEMBL document CHEMBL3046062, “Anti-HIV, antimycobacterial and antimicrobial studies of newly synthesized 1,2,4-triazole clubbed benzothiazoles” (Med Chem Res, 2013):
Converted amounts (≈) assume the structure as drawn.

Columns and labels:
[1] = system: Human immunodeficiency virus 2; assay: Antiviral activity against Human immunodeficiency virus type 2 (ISOLATE ROD) infected MT4 cells assessed as inhibition of virus-induced cytopathogenicity after 5 days by MTT assay; type: functional, organism-based; conditions: Human immunodeficiency virus 2, ISOLATE ROD, MT4, 120 h
[2] = system: Human immunodeficiency virus 1; assay: Antiviral activity against Human immunodeficiency virus 1 IIIB infected MT4 cells assessed as inhibition of virus-induced cytopathogenicity after 5 days by MTT assay; type: functional, organism-based; conditions: MT4, 120 h
[3] = Selectivity index, ratio of CC50 for human MT4 cells to IC50 for HIV2 ROD; type: functional
[4] = Cytotoxicity against Homo sapiens (human) MT4 cells after 5 days by MTT assay; type: cell-based
[5] = Selectivity index, ratio of CC50 for human MT4 cells to IC50 for HIV1 3B; type: functional
[6] = system: Mycobacterium tuberculosis; assay: Antitubercular activity against Mycobacterium tuberculosis H37Rv after 28 days by Lowenstein-Jensen agar method; type: functional; conditions: 672 h
[7] = system: Mycobacterium tuberculosis; assay: Growth inhibition of Mycobacterium tuberculosis H37Rv at MIC after 28 days by Lowenstein-Jensen agar method; type: functional
Aspergillus niger = assay: Antifungal activity against Aspergillus niger MTCC 282 after overnight incubation by broth microdilution method; type: functional
Aspergillus clavatus = assay: Antifungal activity against Aspergillus clavatus MTCC 323 after overnight incubation by broth microdilution method; type: functional
Streptococcus pyogenes = assay: Antibacterial activity against Streptococcus pyogenes MTCC 443 after overnight incubation by broth microdilution method; type: functional
Escherichia coli = assay: Antibacterial activity against Escherichia coli MTCC 442 after overnight incubation by broth microdilution method; type: functional
Candida albicans = assay: Antifungal activity against Candida albicans MTCC 227 after overnight incubation by broth microdilution method; type: functional
Staphylococcus aureus = assay: Antibacterial activity against Staphylococcus aureus MTCC 96 after overnight incubation by broth microdilution method; type: functional
Pseudomonas aeruginosa = assay: Antibacterial activity against Pseudomonas aeruginosa MTCC 2488 after overnight incubation by broth microdilution method; type: functional

SMILES	IC50 [1] [µg/mL]	IC50 [2] [µg/mL]	Ratio CC50/IC50 [3]	CC50 at 120 h [4] [µg/mL]	Ratio CC50/IC50 [5]	MIC [6] [µg/mL]	growth inhibition (GI) [7] [%]	MIC99 (Aspergillus niger) [µg/mL]	MIC99 (Aspergillus clavatus) [µg/mL]	MIC99 (Streptococcus pyogenes) [µg/mL]	MIC99 (Escherichia coli) [µg/mL]	MIC99 (Candida albicans) [µg/mL]	MIC99 (Staphylococcus aureus) [µg/mL]	MIC99 (Pseudomonas aeruginosa) [µg/mL]
COc1ccc2nc(Nn3c(-c4ccc([N+](=O)[O-])cc4)nnc3-c3cccnc3)sc2c1	> 12.9	> 12.9	<1	12.9 (≈ 29 µM)	<1									
NNc1nc2ccc(Cl)cc2s1	> 2.48	> 2.48	<1	2.48 (≈ 12.4 µM)	<1									
O=[N+]([O-])c1ccc(-c2nnc(-c3cccnc3)n2Nc2nc3c(Cl)cccc3s2)cc1	> 15.5	> 15.5	<1	15.6 (≈ 34.6 µM)	<1									
CO[C@H]1/C=C/O[C@@]2(C)Oc3c(C)c(O)c4c(O)c(c(/C=N/N5CCN(C)CC5)c(O)c4c3C2=O)NC(=O)/C(C)=C\C=C\[C@H](C)[C@H](O)[C@@H](C)[C@@H](O)[C@@H](C)[C@H](OC(C)=O)[C@@H]1C [RIFAMPIN]						40 (≈ 48.6 µM)	99							
COc1ccc2nc(Nn3c(-c4ccc(Cl)cc4)nnc3-c3cccnc3)sc2c1	> 66.8	> 66.8	<1	66.8 (≈ 154 µM)	<1	500 (≈ 1150 µM)	98	500 (≈ 1150 µM)	500 (≈ 1150 µM)	500 (≈ 1150 µM)	500 (≈ 1150 µM)	250 (≈ 575 µM)	500 (≈ 1150 µM)	250 (≈ 575 µM)
COC1=CC(=O)C[C@@H](C)[C@]12Oc1c(Cl)c(OC)cc(OC)c1C2=O [GRISEOFULVIN]								100 (≈ 283 µM)	100 (≈ 283 µM)			500 (≈ 1420 µM)		
Cc1ccnc2c1NC(=O)c1cccnc1N2C1CC1 [NEVIRAPINE]		> 0.05		> 4	>80									
CC1(C)S[C@@H]2[C@H](NC(=O)[C@H](N)c3ccccc3)C(=O)N2[C@H]1C(=O)O [AMPICILLIN]										100 (≈ 286 µM)	100 (≈ 286 µM)		250 (≈ 715 µM)	100 (≈ 286 µM)
Cc1ccc2nc(NN)sc2c1	> 4.52	> 4.52	<1	4.52 (≈ 25.2 µM)	<1									
NNc1nc2c([N+](=O)[O-])cccc2s1	> 14.5	> 14.5	<1	14.5 (≈ 68.9 µM)	<1									
NNc1nc2ccc([N+](=O)[O-])cc2s1	> 12.8	> 12.8	<1	12.8 (≈ 60.9 µM)	<1									
Fc1ccc2nc(Nn3c(-c4ccc(Cl)cc4)nnc3-c3cccnc3)sc2c1	> 92.9	> 92.9	<1	92.9 (≈ 220 µM)	<1	62.5 (≈ 148 µM)	98	500 (≈ 1180 µM)	500 (≈ 1180 µM)	500 (≈ 1180 µM)	500 (≈ 1180 µM)	200 (≈ 473 µM)	250 (≈ 591 µM)	62.5 (≈ 148 µM)
Cc1cccc2sc(NN)nc12	> 9.8	> 9.8	<1	9.8 (≈ 54.7 µM)	<1									
NNc1nc2ccc(Br)cc2s1	> 8.01	> 8.01	<1	8.01 (≈ 32.8 µM)	<1									
NNC(=O)c1ccncc1 [ISONIAZID]						0.2 (≈ 1.46 µM)	99							
Clc1ccc(-c2nnc(-c3cccnc3)n2Nc2nc3cc(Cl)c(Cl)cc3s2)cc1	> 52.1	> 52.1	<1	52.1 (≈ 110 µM)	<1	250 (≈ 528 µM)	98	250 (≈ 528 µM)	1000 (≈ 2110 µM)	500 (≈ 1060 µM)	500 (≈ 1060 µM)	250 (≈ 528 µM)	500 (≈ 1060 µM)	250 (≈ 528 µM)
Clc1ccc(-c2nnc(-c3cccnc3)n2Nc2nc3c(Cl)cccc3s2)cc1	> 27.2	> 27.2	<1	27.2 (≈ 61.8 µM)	<1	12.5 (≈ 28.5 µM)	98	500 (≈ 1140 µM)	500 (≈ 1140 µM)	500 (≈ 1140 µM)	100 (≈ 228 µM)	200 (≈ 455 µM)	250 (≈ 569 µM)	62.5 (≈ 142 µM)
O=[N+]([O-])c1ccc(-c2nnc(-c3cccnc3)n2Nc2nc3c([N+](=O)[O-])cccc3s2)cc1	> 13.8	> 13.8	<1	13.8 (≈ 29.9 µM)	<1									

SMILES	IC50 [1] [µg/mL]	IC50 [2] [µg/mL]	Ratio CC50/IC50 [3]	CC50 at 120 h [4] [µg/mL]	Ratio CC50/IC50 [5]	MIC [6] [µg/mL]	growth inhibition (GI) [7] [%]	MIC99 (Aspergillus niger) [µg/mL]	MIC99 (Aspergillus clavatus) [µg/mL]	MIC99 (Streptococcus pyogenes) [µg/mL]	MIC99 (Escherichia coli) [µg/mL]	MIC99 (Candida albicans) [µg/mL]	MIC99 (Staphylococcus aureus) [µg/mL]	MIC99 (Pseudomonas aeruginosa) [µg/mL]
Cc1cccc2sc(Nn3c(-c4ccc(Cl)cc4)nnc3-c3cccnc3)nc12	> 36.4	> 36.4	<1	36.5 (≈ 87 µM)	<1	50 (≈ 119 µM)	95	500 (≈ 1190 µM)	500 (≈ 1190 µM)	1000 (≈ 2390 µM)	500 (≈ 1190 µM)	200 (≈ 477 µM)	100 (≈ 239 µM)	250 (≈ 597 µM)
Clc1ccc(-c2nnc(-c3cccnc3)n2Nc2nc3ccc(Br)cc3s2)cc1	> 29.6	> 29.6	<1	29.6 (≈ 61.2 µM)	<1	500 (≈ 1030 µM)	96	500 (≈ 1030 µM)	1000 (≈ 2070 µM)	1000 (≈ 2070 µM)	500 (≈ 1030 µM)	100 (≈ 207 µM)	500 (≈ 1030 µM)	500 (≈ 1030 µM)
O=[N+]([O-])c1ccc(-c2nnc(-c3cccnc3)n2Nc2nc3ccc([N+](=O)[O-])cc3s2)cc1	> 50.8	> 50.8	<1	50.8 (≈ 110 µM)	<1									
COc1ccc2nc(NN)sc2c1	> 14.8	> 14.8	<1	14.8 (≈ 75.7 µM)	<1									
Cc1ccc2nc(Nn3c(-c4ccc([N+](=O)[O-])cc4)nnc3-c3cccnc3)sc2c1	> 64.4	> 64.4	<1	64.4 (≈ 150 µM)	<1									
O=[N+]([O-])c1ccc(-c2nnc(-c3cccnc3)n2Nc2nc3ccc(F)cc3s2)cc1	> 108	> 108	1	≥ 108	1									
Cc1cccc2sc(Nn3c(-c4ccc([N+](=O)[O-])cc4)nnc3-c3cccnc3)nc12	> 13.5	> 13.5	<1	13.5 (≈ 31.4 µM)	<1									
Cc1ccc2nc(Nn3c(-c4ccc(Cl)cc4)nnc3-c3cccnc3)sc2c1	> 75.5	> 75.5	<1	75.5 (≈ 180 µM)	<1	50 (≈ 119 µM)	95	1000 (≈ 2390 µM)	1000 (≈ 2390 µM)	500 (≈ 1190 µM)	500 (≈ 1190 µM)	1000 (≈ 2390 µM)	500 (≈ 1190 µM)	500 (≈ 1190 µM)
NNc1nc2ccc(F)cc2s1	> 13.8	> 13.8	<1	13.8 (≈ 75.2 µM)	<1									
O=[N+]([O-])c1ccc2nc(Nn3c(-c4ccc(Cl)cc4)nnc3-c3cccnc3)sc2c1	> 62.1	> 62.1	<1	62.1 (≈ 138 µM)	<1	500 (≈ 1110 µM)	98	500 (≈ 1110 µM)	> 1000	100 (≈ 222 µM)	250 (≈ 556 µM)	500 (≈ 1110 µM)	125 (≈ 278 µM)	125 (≈ 278 µM)
O=[N+]([O-])c1ccc(-c2nnc(-c3cccnc3)n2Nc2nc3ccc(Br)cc3s2)cc1	> 13.2	> 13.2	<1	13.2 (≈ 26.7 µM)	<1									
O=[N+]([O-])c1ccc(-c2nnc(-c3cccnc3)n2Nc2nc3cc(Cl)c(Cl)cc3s2)cc1	> 68.6	> 68.6	<1	68.7 (≈ 142 µM)	<1									
NNc1nc2cc(Cl)c(Cl)cc2s1	> 80	> 80	<1	80 (≈ 342 µM)	<1									
NNc1nc2c(Cl)cccc2s1	> 117	> 117	1	117 (≈ 586 µM)	1									
O=[N+]([O-])c1ccc(-c2nnc(-c3cccnc3)n2Nc2nc3ccc(Cl)cc3s2)cc1	> 53.7	> 53.7	<1	53.7 (≈ 119 µM)	<1									
Clc1ccc(COC(Cn2ccnc2)c2ccc(Cl)cc2Cl)cc1 (stereo not given) [ECONAZOLE]						12.5 (≈ 32.7 µM)	99							
Clc1ccccc1C(c1ccccc1)(c1ccccc1)n1ccnc1 [CLOTRIMAZOLE]						20.4 (≈ 59.2 µM)	96							
O=[N+]([O-])c1ccc(-c2nnc(-c3cccnc3)o2)cc1	> 73.5	> 73.5	<1	73.5 (≈ 274 µM)	<1									
